From paper PMC3724117 (British Journal of Pharmacology, 2013)
Where two headings read alike, the source gives them in different places.

Assays:
[1] = test system: histamine-evoked Ca^2+ signals; type: cell-based, human; settings: for IC50: Homo sapiens
[2] = test system: AC activity; assay: cAMP accumulation in human ASMC, HitHunter cAMP HS+ assay; type: cell-based
[3] = test system: EP2 receptor; settings: 2000, cited from earlier work; for pKD, EP2 receptor: reported affinity, ref Abramovitz et al.
[4] = test system: intracellular Ca^2+ stores; assay: Ca2+ content of the intracellular stores of human ASMC; type: cell-based; settings: 2-APB, stores assessed with ionomycin 1 μM
[5] = test system: AC activity; assay: cAMP accumulation in human ASMC, 3H-adenine-labelling assay; type: cell-based; settings: read-out: pEC50 for cAMP accumulation (converted)
[6] = test system: human ASMC; assay: Direct effect of drug alone on [Ca2+]i in human ASMC; type: cell-based
[7] = target: EP4 receptors (Homo sapiens, UniProt P35408); type: cell-based
EP4 receptors, sequence (P35408 whole entry): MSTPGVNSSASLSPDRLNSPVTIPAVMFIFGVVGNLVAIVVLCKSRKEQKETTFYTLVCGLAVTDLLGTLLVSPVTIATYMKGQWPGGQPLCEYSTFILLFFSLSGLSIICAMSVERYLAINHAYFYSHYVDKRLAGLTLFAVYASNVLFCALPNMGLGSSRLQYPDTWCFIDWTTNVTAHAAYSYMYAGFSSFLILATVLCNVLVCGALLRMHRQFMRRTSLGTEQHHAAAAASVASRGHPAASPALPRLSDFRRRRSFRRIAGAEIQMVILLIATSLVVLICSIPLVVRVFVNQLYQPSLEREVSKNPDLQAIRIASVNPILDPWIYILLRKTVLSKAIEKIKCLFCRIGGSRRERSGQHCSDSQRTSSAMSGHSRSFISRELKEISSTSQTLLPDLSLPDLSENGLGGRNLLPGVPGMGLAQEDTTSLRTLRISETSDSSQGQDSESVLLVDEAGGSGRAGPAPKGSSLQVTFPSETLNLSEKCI

[8] = test system: EP4 receptor; settings: cited from earlier work
[9] = target: EP2 receptors (Homo sapiens, UniProt P43116); type: cell-based
EP2 receptors, sequence (P43116 whole entry): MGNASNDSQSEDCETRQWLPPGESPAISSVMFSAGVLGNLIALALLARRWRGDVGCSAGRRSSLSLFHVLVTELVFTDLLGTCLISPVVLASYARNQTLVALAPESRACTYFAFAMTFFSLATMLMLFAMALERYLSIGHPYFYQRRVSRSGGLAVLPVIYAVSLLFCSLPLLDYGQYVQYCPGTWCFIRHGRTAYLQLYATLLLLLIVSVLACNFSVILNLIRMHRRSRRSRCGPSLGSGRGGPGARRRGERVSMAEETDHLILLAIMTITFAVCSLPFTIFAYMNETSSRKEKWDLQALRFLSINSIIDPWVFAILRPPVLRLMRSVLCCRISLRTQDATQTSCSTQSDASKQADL

[10] = read-out: [Ca2+]i, pIC50, Control (converted)

COc1ccc2c(c1)CC[C@@H]1[C@@H]2CC[C@]2(C)[C@@H](NCCCCCCN3C(=O)C=CC3=O)CC[C@@H]12 [U73122, 1-[6-[[(17β)-3-methoxyestra-1,3,5(10)-trien-17-yl]amino]hexyl]-1H-pyrrole-2,5-dione]
IC50 ([1]; read-out: pIC50 for inhibition of Ca2+ signals evoked by histamine (converted)): 1740 nM

CCCC1([C@H](O)C/C=C/[C@H]2[C@H](O)CC(=O)[C@@H]2CCCCCCC(=O)OC)CCC1 [Butaprost]
EC50 for cAMP accumulation relative to PGE2 (higher) ([2]; butaprost vs PGE2): ~10 fold
IC50 [1, 10]: 6.03 nM
difference between functional pIC50 and published binding affinity (pKD) ([1]; pIC50 8.22 vs pKD 7.04): more than 10 fold
affinity for human EP2 receptors relative to PGE2 (lower) ([3]; ref Narumiya et al., 1999, Abramovitz et al.): ~20 fold
pKD, EP2 receptor [3]: 7.04

COc1ccc([C@H]2N[C@H](C(=O)O)Cc3c2[nH]c2ccccc32)cc1CN1CCN(c2ccccc2F)CC1 [trans-Ned-19, (1R,3S)-1-[3-[[4-(2-fluorophenyl)piperazin-1-yl]methyl]-4-methoxyphenyl]-2,3,4,9-tetrahydro-1H-pyrido[3,4-b]indole-3-carboxylic acid]
effect on responses to histamine ([1]; trans-Ned-19 1 μM, 5 min): unaffected

CS(=O)(=O)NC(=O)CCC/C=C\C[C@H]1C(=O)C[C@@H](O)[C@@H]1/C=C/[C@@H](O)COc1ccccc1 [Sulprostone, sulprostone]
effect on histamine-evoked Ca2+ signals ([1]; sulprostone 1 μM, histamine 3 μM): no effect

NCCOB(c1ccccc1)c1ccccc1 [2-APB, 2-aminoethoxydiphenyl borate]
effect on Ca2+ content of the intracellular stores [4]: substantial loss
effect on Ca2+ signals evoked by histamine ([1]; 2-APB 5 min before, histamine 3 μM or 1 mM, Ca2+-free HBS): concentration-dependent inhibition

COc1ccc2c(c1)CC[C@@H]1[C@@H]2CC[C@]2(C)[C@@H](NCCCCCCN3C(=O)CCC3=O)CC[C@@H]12 [U73343, 1-[6-[[(17β)-3-methoxyestra-1,3,5(10)-trien-17-yl]amino]hexyl]-2,5-pyrrolidinedione]
effect on Ca2+ signals evoked by histamine ([1]; U73343 ≤10 μM, histamine 100 μM): no effect

CCCCC[C@H](O)/C=C/[C@H]1[C@H](O)CC(=O)[C@@H]1C/C=C\CCCC(=O)O [PGE2, Prostaglandin E2]
EC50 [5]: 214 nM
IC50 [1, 10]: 0.537 nM
effect on [Ca2+]i ([6]; PGE2 alone (10 μM)): no effect

COc1ccc2c(c1)c(CC(=O)O)c(C)n2C(=O)c1ccc(Cl)cc1 [indomethacin, Indomethacin]
effect on histamine-evoked Ca2+ signals ([1]; indomethacin 10 μM, 5 min): nor indomethacin, an inhibitor of cyclooxygenases (Figure 1F), had any effect

CCOc1c2c(c(OCC)c3ccccc13)C(=O)N(c1ccc(CC(=O)NS(=O)(=O)c3ccccc3)cc1)C2 [GW627368X, 2-[4-(4,9-diethoxy-3-oxo-1H-benzo[f]isoindol-2-yl)phenyl]-N-phenylsulfonylacetamide]
ΔpIC50 (pIC50 control − pIC50 +antagonist) of L902,688 ([1]; GW627368X 1 μM, histamine 3 μM): 2.20 ± 0.28
ΔpIC50 (pIC50 control − pIC50 +antagonist) of PGE2 ([1]; GW627368X 1 μM, histamine 3 μM): 0.24 ± 0.08
ΔpIC50 (pIC50 control − pIC50 +antagonist) of butaprost ([1]; GW627368X 1 μM, histamine 3 μM): −0.21 ± 0.14
Kd [7]: 6.31 nM

O=C(O)CCCCCC[C@H]1C(=O)NC(=O)N1CCC(O)C1CCCCC1 (stereo partly drawn) [BW 245C, (4S)-(3-[(3R,S)-3-cyclohexyl-3-hydroxypropyl]-2,5-dioxo)-4-imidazolidineheptanoic acid]
effect on histamine-evoked Ca2+ signals ([1]; BW 245C 10 nM, histamine 3 μM): no effect

O=C1CC[C@H](/C=C/[C@@H](O)C(F)(F)c2ccccc2)N1CCCCCCc1nn[nH]n1 [L902,688, 5-[(1E,3R)-4,4-difluoro-3-hydroxy-4-phenyl-1-buten-1-yl]-1-[6-(2H-tetrazol-5R-yl)hexyl]-2-pyrrolidinone]
cAMP, pEC50, Control ([2]; HitHunter HS+ assay, 5 min): 7.76 ± 0.11 (3) /M
[Ca2+]i, pIC50, Control ([1]; histamine 3 μM, agonist alone): 9.52 ± 0.25 (3) /M
affinity for EP4 receptors relative to PGE2 (greater) ([8]; ref Supporting Information Table S4): approximately twofold
pKD, EP4 receptor ([8]; reported affinity, ref Young et al., 2004): 9.4

CC(C)[C@@]1(O)[C@@H](OC(=O)c2ccc[nH]2)[C@@]2(O)[C@@]3(C)C[C@]4(O)O[C@@]5([C@H](O)[C@@H](C)CC[C@]35O)[C@@]2(O)[C@@]14C [ryanodine, Ryanodine]
effect on responses to histamine ([1]; ryanodine 100 μM, 5 min): unaffected

CC(C)Oc1ccc2c(=O)c3cc(C(=O)O)ccc3oc2c1 [AH6809, 6-isopropoxy-9-oxoxanthene-2-carboxylic acid]
ΔpIC50 (pIC50 control − pIC50 +antagonist) of L902,688 ([1]; AH6809 30 μM, histamine 3 μM): −0.01 ± 0.27
ΔpIC50 (pIC50 control − pIC50 +antagonist) of PGE2 ([1]; AH6809 30 μM, histamine 3 μM): 0.62 ± 0.13
ΔpIC50 (pIC50 control − pIC50 +antagonist) of butaprost ([1]; AH6809 30 μM, histamine 3 μM): 1.12 ± 0.15
Kd [9]: 2510 nM
pKD, EP2 receptor [3]: 5.9

CC(C)OC(=O)CCC/C=C\C[C@@H]1[C@@H](CC[C@@H](O)CCc2ccccc2)[C@H](O)C[C@@H]1O [latanoprost]
effect on histamine-evoked Ca2+ signals ([1]; latanoprost 100 nM, histamine 3 μM): no effect

Cn1c(=O)c2c(ncn2C)n(C)c1=O [caffeine]
effect on [Ca2+]i ([6]; caffeine 10 mM): no effect
